Experimental data as given in patent US12475972B2, “Prediction system for identifying key heterogeneous molecules driving tumor metastasis” (NANJING HANWEI PUBLIC HEALTH TECHNOLOGY CO., LTD., priority 2021, dated 2025).

Key:
[1] = tested on: BGC823 cells and BGC823-LPC1; experiment: Transwell experiment after FASN inhibitor EGCG; format: cell-based; conditions: different concentrations, 24 hours
Procedure: Further validation of the relationship between FASN and gastric cancer metastasis using transwell and scratch experiments: BGC823 cells and BGC823-LPC1 (primary cells of residual lung metastases in the animal model SP141 and JP3 combined intervention group) were treated with different concentrations of FASN inhibitor EGCG for 24 hours, followed by transwell experiments. […] The inhibition rate of perforation cells was similar in both types of cells (FIG. 20B). […] As shown in FIGS. 20A-20D, intervention on FASN can inhibit the migration of gastric cancer cells.

[2] = tested on: FASN; experiment: Immunoblotting of FASN and FAK after EGCG; format: cell-based; conditions: dose-response
[3] = tested on: BGC823-LPC1; experiment: BGC823-LPC1 passive metastasis model; format: in vivo, mice; conditions: compared to the solvent control group
Procedure: A passive metastasis model was constructed by extracting primary cells BGC823-LPC1 from residual lung metastases after joint intervention on JWA and MDM2. On the second day after injecting cells into the tail vein of the model mice, they were grouped and administered. During the medication period, they were weighed on time. At the end of the modeling, the lung wet weight of each group of mice was measured, and the situation of lung metastases was observed.

[4] = tested on: FASN; experiment: Protein mass spectrometry of residual lung metastatic lesions; format: in vivo, mice
Description: On the basis of the above model, primary cells were extracted from the residual gastric cancer cells metastatic foci of the lungs of EGCG-treated mice, named BGC823-LPC2. Firstly, protein mass spectrometry analysis was continued on the residual metastatic lesions in the lungs of the EGCG group and the combined treatment group with SP141 and JP3, with a focus on observing the protein expression changes of each independent molecule identified in 1.4 above.

[5] = tested on: BGC823-LPC2 cells; experiment: BGC823-LPC2 passive metastasis model; format: in vivo, nude mice; conditions: compared with the solvent control group
Description: On the basis of the positive results obtained in the cell model, the animal model was then validated. A passive metastasis model was constructed using BGC823-LPC2 cells injected through the tail vein of nude mice. The mice were randomized on the second day and given control solvent, EGCG, WP-1130 alone, and WP-1130 plus sh-PFN1 lentivirus in a sequential manner.

[6] = tested on: MGC803; experiment: CCK-8 half inhibitory concentration on gastric cancer cells; format: cell-based; conditions: CCK-8, MGC803
[7] = tested on: AGS; experiment: as above; format: cell-based; conditions: CCK-8, AGS
[8] = tested on: MFC; experiment: as above; format: cell-based, mouse; conditions: CCK-8, MFC
[9] = tested on: SGC7901; experiment: as above; format: cell-based; conditions: CCK-8, SGC7901
[10] = tested on: BGC823; experiment: as above; format: cell-based; conditions: CCK-8, BGC823
[11] = tested on: gastric cancer cells BGC823, SGC7901, and MFC; experiment: Perforated cell count (transwell) after SP141; format: cell-based; conditions: different doses, 24 hours
[12] = tested on: gastric cancer cells BGC823, SGC7901, and MFC; experiment: Cell scratch assay after SP141; format: cell-based
[13] = tested on: gastric cancer cell line MFC; experiment: MFC abdominal implant metastasis model; format: in vivo, mouse
Procedure: The mouse-derived gastric cancer cell line MFC were selected to construct an abdominal implant metastasis model. On the second day of cell inoculation, different doses of SP141 were administered intraperitoneally for intervention. The modeling was completed and the number of abdominal metastatic nodules was recorded.

[14] = tested on: MDM2; experiment: MDM2 and JWA protein expression in BGC823 cells after SP141; format: cell-based; conditions: BGC823, 0, 0.25, 0.5 μM, 24 hours
Procedure: With a cell model, the mutual regulation between JWA and MDM2 proteins was examined. […] Thereafter, 0, 0.25, 0.5 μM SP141 were used to inhibit the expression level of MDM2 in gastric cancer cells BGC823 for 24 hours. […] Thus, it can be seen that as shown in FIGS. 9A-9C, in gastric cancer, JWA and MDM2 have no mutually regulatory relationship at the protein and mRNA levels, and their respective biological functions on gastric cancer cells are independent.

[15] = tested on: AGS cells; experiment: Transwell assay in AGS cells, Flag-JWA plasmid and SP141; format: cell-based; conditions: compared to the control group
Description: Thus, as shown in FIGS. 10A-10B, the combined intervention of JWA and MDM2 has a synergistic inhibitory effect on gastric cancer cell migration.

[16] = tested on: BGC823-luc; experiment: BGC823-luc tail vein passive metastasis model, in vivo fluorescence imaging; set-up: species or system nude mice
Procedure: In an in vivo model, fluorescent labeled gastric cancer cells BGC823-luc were injected into the tail vein of nude mice to construct a passive metastasis model of gastric cancer. Drug intervention began on the second day after cell inoculation (FIG. 11A). […] The weight of the mice of the drug intervention group was relatively stable and in good condition (FIG. 11B). […] Thus, as shown in FIGS. 11A-11D, the joint intervention of JWA and MDM2 has a synergistic inhibitory effect on gastric cancer metastasis in vivo.

[17] = tested on: B16F10 melanoma cells; experiment: B16F10 tail vein passive lung metastasis model; format: in vivo, mice; conditions: different doses, dose-response
Procedure: A passive metastasis model was constructed by injecting B16F10 melanoma cells into the tail vein of mice. On the second day of cell inoculation, the mice were grouped, and Ctrl-R or JP1 peptides were injected intraperitoneally for intervention. […] Note: Ctrl-R peptide and JP1 peptide can be found in Cui J, et al. Theranotics 2020; 10 (18): Recorded in 8036-8050.
A passive metastatic mouse model was constructed using B16F10 cells. On the second day of cell inoculation, different doses of SP141 were used for intervention. At the end of the modeling, the number of metastatic nodules in the lungs was recorded. As shown in FIGS. 29A-29D, SP141 can inhibit the lung metastasis of melanoma in mice, and there is a dose-response relationship. […] Conclusion: inhibition of MDM2 by SP141 can effectively reduce in vivo metastasis of melanoma in mice.
The mouse model validation was further carried out on the basis of cell model validation. A lung metastasis model with B16F10 cell tail vein injection was constructed, and on the second day, the mice were randomly grouped according to their body weight for drug intervention. As shown in FIGS. 31A-31F, the joint intervention of JWA and MDM2 has a synergistic inhibitory effect on the in vivo metastasis of melanoma. […]

[18] = tested on: MDM2; experiment: MDM2 and JWA protein expression in B16F10 cells after SP141; format: cell-based; conditions: B16F10, 0, 0.25, 0.5 μM, 24 hours
Procedure: The relationship between the expression levels of JWA and MDM2 genes and the prognosis of melanoma population was analyzed using the TCGA database. […] Meanwhile, melanoma cells B16F10 were treated respectively with 0, 0.25, 0.5 μM SP141 for 24 hours, and the protein expression levels of MDM2 and JWA were measured.

[19] = tested on: BGC823-LPC2; experiment: Transwell experiment in BGC823-LPC2 cells; format: cell-based; conditions: treated 8 hours, dose-response
Procedure: To verify the relationship between USP9X and gastric cancer metastasis, cultured BGC823 LPC2 cells were first treated with USP9X inhibitor WP-1130 (existing product) for 8 hours before a transwell experiment. […] Thus, it can be seen that inhibiting the expression of USP9X can effectively reduce the migration of gastric cancer cells.
For the heterogeneous molecule PFN1, a low expression lentiviral plasmid sh-PFN1 was constructed due to the lack of commercialized inhibitor compounds. Transwell experiments were performed after transfection of sh-con and sh-PFN1 in BGC823-LPC2 for 48 hours.

[20] = tested on: USP9X; experiment: Immunoblotting of USP9X and p-AKT after WP-1130; format: cell-based; conditions: dose-response
[21] = tested on: BGC823 LPC2 cells; experiment: Scratch experiment after WP-1130; format: cell-based

`O=C(O[C@@H]1Cc2c(O)cc(O)cc2O[C@@H]1c1cc(O)c(O)c(O)c1)c1cc(O)c(O)c(O)c1` [EGCG] was tested, and the “number of perforation cells” value [1] was “significantly reduced”, the “expression level of FASN protein” value [2] was “reduced” and the “transfer related protein FAK” value [2] was “correspondingly reduced”. For the same molecule, the lung wet weight [3] was “significant decrease”, the “number of metastatic foci” value [3] was “significant decrease” and the “rest of the proteins inhibited” value ([4]; other independent molecules identified in 1.4) was “less than 20%”. The FASN inhibited ([4]; residual lung metastatic lesions, vs SP141 and JP3 combined treatment group) was 22%, the lung metastatic foci [5] was “did not decrease significantly” and the lung wet weight [5] was “not obvious”.

`CCCCCCCCCCC[C@@H](C[C@@H]1OC(=O)[C@H]1CCCCCC)OC(=O)[C@H](CC(C)C)NC=O` [Orlistat] was tested, and the lung wet weight [3] was “significant decrease” and the “number of metastatic foci” value [3] was “significant decrease”.

In the case of `COc1ccc2[nH]c3c(-c4cccc5ccccc45)nccc3c2c1` [SP141], the IC50 [6] is reported as 616 nM, the IC50 [7] is reported as 335 nM and the IC50 [8] is reported as 345 nM. For the same molecule, the IC50 [9] was 687 nM, the IC50 [10] was 599 nM and the “number of perforated cells” value [11] was “gradually decreased with increasing dose”. For the same molecule, the “migration rate of the cells” value [12] was “significantly slowed down”, the “number of abdominal metastatic nodules compared with the control group” value ([13]; 40 mg/kg group) was “statistically significant” and the “MDM2 protein levels in residual tumor tissues” value ([13]; 40 mg/kg group vs control, immunoblotting) was “significant decrease”. The “number of gastric cancer abdominal implantation metastases” value ([13]; different doses intraperitoneally) was “could inhibit the number of gastric cancer abdominal implantation metastases”, the “protein expression level of JWA” value [14] was “no significant change” and the “protein expression level of MDM2” value [14] was “decreased with increasing SP141 dose”. The “number of cell perforations” value [15] was “decrease”, the “fluorescence intensity of lung metastases” value [16] was “weaker than that of the control group” and the “lung metastasis of melanoma” value [17] was “can inhibit”. For the same molecule, the “JWA protein expression level” value [18] was “no significant change” and the “protein expression level of MDM2” value [18] was “decreased with increasing SP141 dose”.

`CCC[C@H](NC(=O)/C(C#N)=C/c1cccc(Br)n1)c1ccccc1` [WP-1130] was tested, and the “number of cell perforations” value [19] was “significantly inhibit”, the “expression of USP9X protein” value [20] was “reduced” and the “transfer related protein p-AKT” value [20] was “correspondingly reduced”. The scratch experiment [21] was “consistent with those of the small chamber perforation experiment”, the lung metastatic foci [5] was “decreased significantly” and the lung wet weight [5] was “decreased significantly”.
